{"source": "patent US20250041380A1", "about": "“R[…] FOR SARS-COV2 DISEASE” (priority 2021, published 2025)", "key": {"[1]": {"tested_on": "Immune cells (THP-1)", "assay_type": "cell-based, Human"}, "[2]": {"tested_on": "Lung cells (A549)", "assay_type": "cell-based, Human"}}, "note": "Like-named read-outs stand apart in the source and are kept apart here.", "data": [{"smiles": "CCN(CCO)CCCC(C)Nc1ccnc2cc(Cl)ccc12", "note": "(centres unmarked) [Hydroxychloroquine sulphate]", "values": [{"measurement": "Inhibition of IL-6", "setting": "[1]; 0.1 µM", "value": 90.7, "unit": "%"}, {"measurement": "Inhibition of IL-8", "setting": "[1]; 0.1 µM", "value": 23.2, "unit": "%"}, {"measurement": "Inhibition of IL-6", "setting": "[1]; 1 µM", "value": 83.9, "unit": "%"}, {"measurement": "Inhibition of IL-8", "setting": "[1]; 1 µM", "value": 36.8, "unit": "%"}, {"measurement": "Inhibition of IL-6", "setting": "[1]; 5 µM", "value": 94.2, "unit": "%"}, {"measurement": "Inhibition of IL-8", "setting": "[1]; 5 µM", "value": 53.4, "unit": "%"}, {"measurement": "Inhibition of IL-6", "setting": "[1]; 10 µM", "value": 84.5, "unit": "%"}, {"measurement": "Inhibition of IL-8", "setting": "[1]; 10 µM", "value": 53.5, "unit": "%"}, {"measurement": "Inhibition of IL-6", "setting": "[1]; 20 µM", "value": 100.0, "unit": "%"}, {"measurement": "Inhibition of IL-8", "setting": "[1]; 20 µM", "value": 36.1, "unit": "%"}, {"measurement": "Inhibition of IL-6", "setting": "[2]; 0.1 µM", "value": 34.7, "unit": "%"}, {"measurement": "Inhibition of IL-8", "setting": "[2]; 0.1 µM", "value": 54.4, "unit": "%"}, {"measurement": "Inhibition of IL-6", "setting": "[2]; 1 µM", "value": 53.4, "unit": "%"}, {"measurement": "Inhibition of IL-8", "setting": "[2]; 1 µM", "value": 40.8, "unit": "%"}, {"measurement": "Inhibition of IL-6", "setting": "[2]; 5 µM", "value": 66.5, "unit": "%"}, {"measurement": "Inhibition of IL-8", "setting": "[2]; 5 µM", "value": 56.7, "unit": "%"}, {"measurement": "Inhibition of IL-6", "setting": "[2]; 10 µM", "value": 60.7, "unit": "%"}, {"measurement": "Inhibition of IL-8", "setting": "[2]; 10 µM", "value": 44.0, "unit": "%"}, {"measurement": "Inhibition of IL-6", "setting": "[2]; 20 µM", "value": 71.4, "unit": "%"}, {"measurement": "Inhibition of IL-8", "setting": "[2]; 20 µM", "value": 65.0, "unit": "%"}]}]}
